Like-named read-outs stand apart in the source and are kept apart here. One block for each compound: values may come before it.
Assays:
HDAC8 = molecular target: T1, HDAC8 (Homo sapiens, UniProt Q9BY41); parameters: method as in PMID 33570940; details: cited from earlier work
T1 sequence (Q9BY41 1-377): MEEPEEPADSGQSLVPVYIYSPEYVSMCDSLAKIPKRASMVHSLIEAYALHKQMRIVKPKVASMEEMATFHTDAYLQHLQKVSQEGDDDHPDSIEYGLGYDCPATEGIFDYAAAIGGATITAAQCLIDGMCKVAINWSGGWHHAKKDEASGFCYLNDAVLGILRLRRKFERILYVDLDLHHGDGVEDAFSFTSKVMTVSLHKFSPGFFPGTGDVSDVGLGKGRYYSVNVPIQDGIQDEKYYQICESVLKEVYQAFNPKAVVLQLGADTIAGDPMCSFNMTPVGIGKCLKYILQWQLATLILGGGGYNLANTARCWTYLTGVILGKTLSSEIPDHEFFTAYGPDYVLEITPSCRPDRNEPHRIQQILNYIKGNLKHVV

HeLa nuclear HDACs [1] = test system: HeLa nuclear HDACs; parameters: method as in PMID 33845233; details: introduction, earlier work; read-out: IC50 class I HDACs; cited from earlier work
HeLa nuclear HDACs [2] = assay: HDAC inhibition assay, HeLa nuclear extract (mixture of class I HDACs 1, 2, and 3); details: read-out: IC50 HeLa nuclear HDACs, Boc-Lys-(AMC) substrate
SCM-1 cells = assay: Cell viability (MTT) assay, SCM-1; format: cell-based; details: human gastric cancer cells, read-out: IC50 of cytotoxicity SCM-1
Excerpt: (§1) Human breast cancer MDA-MB-231 cells and gastric cancer SCM-1 cells were purchased from the American Type Culture Collection (Manasas, VA, USA). SCC2095 human oral cancer cells were kindly provided by Professor Susan R. Mallery (The Ohio State University). Normal human lung fibroblasts (NHLFs; CC-2512) were purchased from the Lonza (Walkersville, MD, USA). SCM-1 cells were maintained in RPMI-1640 medium (Invitrogen, Carlsbad, CA, USA); MDA-MB-231 and SCC2095 cells were maintained in DMEM/F12 (Invitrogen); and NHLFs were maintained in FGM™-2 medium (Lonza) with 2% serum, supplemented with 10% heat-inactivated foetal bovine serum (FBS; Gibco, Grand Island, NY, USA). All cells were cultured at 37 °C in a humidified incubator containing 5% CO2 and 95% relative humidity.
(§2) To assess cell viability, cells were seeded in three replicates into 96-well plates at a density of 5×10^3/well for 24 h following incubation with compounds at the indicated concentrations. Then, cell viability was assessed with 3–(4,5-dimethylthiazol-2-yl)-2,5-diphenyltetrazolium bromide (MTT) solution (0.5 mg/mL) for 4h as described previously. After removing the medium, 200 µL of DMSO was added, and then the absorbance was measured at 570 nm using a plate reader (BMG LABTECH, Germany).

MDA-MB-231 cells = assay: Cell viability (MTT) assay, MDA-MB-231; format: cell-based; details: human breast cancer cells, read-out: IC50 of cytotoxicity MDA-MB-231
Excerpt: as §1, §2

SMILES: O=C(NO)c1ccc(CN2C(=O)c3ccccc3S2(=O)=O)cc1-c1ccccc1 [Compound 1]
IC50 (HDAC8): 70 nM

IC50 (HeLa nuclear HDACs [2]): 100 ± 20 nM
SMILES: NC(=O)c1ccc2c(c1)N(Cc1ccc(C(=O)NO)cc1)c1ccccc1S2 [LH4f, reference compound]
IC50 (HeLa nuclear HDACs [1]): 100 nM

SMILES: CC(=O)O[C@H]1C(=O)[C@@]2(C)[C@H]([C@H](OC(=O)c3ccccc3)[C@]3(O)C[C@H](OC(=O)[C@H](O)[C@@H](NC(=O)c4ccccc4)c4ccccc4)C(C)=C1C3(C)C)[C@]1(OC(C)=O)CO[C@@H]1C[C@@H]2O [Paclitaxel, reference compound]
IC50 (SCM-1 cells): 80 ± 10 nM

SMILES: CC/C(=C(\c1ccccc1)c1ccc(OCCN(C)C)cc1)c1ccccc1 [Tamoxifen, reference compound]
IC50 (MDA-MB-231 cells): 11400 ± 900 nM

Reference: publication PMC11423540, “Synthesis and biological evaluation of ortho-phenyl phenylhydroxamic acids containing phenothiazine with improved selectivity for class IIa histone deacetylases” (Journal of Enzyme Inhibition and Medicinal Chemistry, 2024)
